Measurements from patent US20120035196A1, “CARBOXYLIC ACID COMPOUND” (priority 2009, published 2012).
pEC50: −log10 of the molar value.

Assays:
human GPR40 = target: T1, human GPR40 (Homo sapiens, UniProt O14842, R211H); assay: Measurement of GPR40 agonistic activity (FLIPR, change in intracellular calcium concentration); type: cell-based; details: CHO cell strain expressing human GPR40; changes in fluorescence intensity after 1 minute
T1 construct: expressed in transfected cells
Source text: Test Method 1: Measurement of GPR40 Agonistic Activity i) Cloning of Human GPR40
A full-length sequence of GPR40 was obtained by PCR method using human genomic DNA (Clontech) as a template in accordance with the procedure shown below.
An oligonucleotide consisting of the base sequence represented by SEQ ID NO: 1 was used as the forward primer, and an oligonucleotide consisting of the base sequence represented by SEQ ID NO: 2 as the reverse primer. In this connection, a base sequence comprising a XbaI recognition region was added to the respective 5′-termini of the aforementioned forward primer and reverse primer. PCR was carried out in the presence of 5% dimethylsulfoxide (DMSO) using a Taq DNA polymerase (Ex Taq DNA polymerase; Takara Bio), by repeating 30 times of a cycle consisting of 94° C. (15 seconds)/55° C. (30 seconds)/72° C. (1 minute). As a result, a DNA fragment of about 0.9 kbp was amplified. This DNA fragment was digested with XbaI and then inserted into the XbaI site of a plasmid pEF-BOS-dhfr (Nucleic acids Research, 18, 5322, 1990), thereby obtaining a plasmid pEF-BOS-dhfr-GPR40.
The base sequence of the GPR40 gene in the pEF-BOS-dhfr-GPR40 was determined by the dideoxy terminator method using a DNA sequencer (ABI 377 DNA Sequencer, Applied Biosystems). The base sequence of the GPR40 gene was represented by the base sequence SEQ ID NO: 3. […]
ii) Preparation of GPR40 Stable Expression Cell
As the cell for expressing GPR40 protein, a CHO dhfr cell (a dihydrofolate reductase (dhfr) gene-deficient CHO cell) was used. Also, as the plasmid for expressing GPR40 protein, the plasmid pEF-BOS-dhfr-GPR40 obtained in the aforementioned i) was used. The CHO dhfr cell was inoculated into an αMEM medium containing 10% fetal calf serum (FCS) using a 6 well plate (Asahi Techno Glass) and cultured overnight to a confluence of 80 to 90%, and then 2 μg per well of the plasmid pEF-BOS-dhfr-GPR40 was gene-transferred using a transfection reagent (Lipofectamine 2000; Invitrogen). After 24 hours of culturing from the gene transfer, the cells were diluted and inoculated again. […] After 20 days of culturing, the formed colonies of cells were individually recovered and cultured to obtain CHO cells stably expressing GPR40. From these, cells having high reactivity for intrinsic ligands oleic acid and linoleic acid were selected. […]
iii) Measurement of GPR40 Agonistic Activity
The present test was measured by FLIPR (registered trademark, Molecular Devices) using a change in intracellular calcium concentration as the index. Hereinafter, the test method will be shown.
A CHO cell strain in which human GPR40 was expressed was inoculated into a 384 well black plate (Becton Dickinson) at 6×10^3 cells per well portion and cultured overnight in a CO2 incubator.
Using a Calcium-3 assay kit (Molecular Devices), one bottle of the phosphorescent pigment was dissolved in 10 ml of HBSS-HBEPES buffer (pH 7.4, 1×HBSS, 20 mM HEPES, Invitrogen). 35.68 mg of Probenecid (Sigma) was dissolved in 250 μl of 1 M NaOH and adjusted by adding 250 μl of the HBSS-HEPES buffer. A phosphorescent pigment solution was prepared by mixing 16 ml of HBSS-HEPES buffer, 640 μl of the phosphorescent pigment and 32 μl of probenecid per one plate. The medium was discarded from the plate, and the phosphorescent pigment solution was dispensed at 40 μl per well portion and then incubated at room temperature for 2 hours. Each compound to be tested was dissolved in DMSO and then diluted with HBSS-HEPES buffer and dispensed in 10 μl portions into the plate, thereby starting the reaction, and changes in the intracellular calcium concentration were measured by FLIPR. The EC50 value of each compound to be tested was calculated by a dose-response curve of changes in fluorescence intensity after 1 minute of the measurement.

Male ICR mice = assay: Normal mice single oral glucose tolerance test; type: in vivo; details: Mus musculus, 0.5 h, orally 10 mg/kg 30 minutes before glucose loading (2 g/kg), 30 minutes after glucose loading, relative to control group, read-out: Blood glucose increase inhibition rate
Description: Test Method 3: Normal Mice Single Oral Glucose Tolerance Test
The present test was to examine the blood glucose increase inhibiting action of the test compound after glucose loading, using normal mice. Hereinafter, the test method will be shown.
Male ICR mice (6 weeks of age) after 1 week of acclimatization were subjected to overnight fasting and used as test animals. The test compound was made into a 0.01 M aqueous sodium hydroxide solution and orally administered at a dose of 10 mg/kg 30 minutes before the glucose loading (2 g/kg). A 0.01 M aqueous sodium hydroxide solution was administered to the control group. The blood glucose increase inhibitory ratio (%) after 30 minutes of glucose loading was calculated, relative to the control group.
When the compound of Example 72 described in Pamphlet of International Publication WO2005/087710 was orally administered at 10 mg/kg by the same method as the test method 3 above, the blood glucose increase inhibition rate was measured and found to be 9%, whereas when the compound was orally administered at 30 mg/kg, the blood glucose increase inhibition rate was 20%. […] Further, in the present test, a minimum administration amount showing a blood glucose increase inhibition rate of 20% or more or a minimum administration amount showing a significance (Dunnet multiple comparison test) relative to a control was taken as a minimum effective dose (MED).

T1 sequence (O14842 whole entry R211H): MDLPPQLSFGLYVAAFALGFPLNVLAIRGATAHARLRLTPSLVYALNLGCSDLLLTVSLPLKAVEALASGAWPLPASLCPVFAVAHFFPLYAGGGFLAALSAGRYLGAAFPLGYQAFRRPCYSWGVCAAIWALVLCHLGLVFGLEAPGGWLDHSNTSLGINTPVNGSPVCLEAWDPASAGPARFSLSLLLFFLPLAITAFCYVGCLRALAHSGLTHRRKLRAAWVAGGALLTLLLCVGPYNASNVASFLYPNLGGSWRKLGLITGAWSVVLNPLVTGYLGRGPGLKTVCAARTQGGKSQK

Row | SMILES | pEC50 (human GPR40) | inhibition in vivo at 10 mg/kg (Male ICR mice) [%]
1 | COCCCOc1cc(C)c(-c2cccc(COc3ccc4c(c3)OC3(CC3)C4CC(=O)O)c2C)c(C)c1 (stereo not drawn) [Example 21-3] | 6.15 | 32
2 | Cc1cc(OCCO)cc(C)c1-c1cccc(CNc2ccc3c(c2)CC2(CC2)C3CC(=O)O)c1C (single isomer, unassigned) [Example 25b, [5′-({[4′-(2-hydroxyethoxy)-2,2′,6′-trimethylbiphenyl-3-yl]methyl}amino)-1′,3′-dihydrospiro[cyclopropan-1,2′-inden]-1′-yl]acetic acid] | 6.68 | 33
3 | Cc1cc(OCCO)cc(C)c1-c1cccc(COc2ccc3c(c2)-c2ccccc2C3CC(=O)O)c1C (stereo not drawn) [Example 2, sodium (3-{[4′-(2-hydroxyethoxy)-2,2′,6′-trimethylbiphenyl-3-yl]methoxy}-9H-fluoren-9-yl)acetate] | 6.28 | 37
4 | COCCOc1cc(C)c(-c2cccc(COc3ccc4c(c3)OC3(CC3)C4CC(=O)O)c2C)c(C)c1 (stereo not drawn) [Example 21-1] | 6.12 | 30
5 | Cc1cc(OC[C@@H](O)CO)cc(C)c1-c1cccc(COc2ccc3c(c2)OC2(CC2)C3CC(=O)O)c1C (stereo partly drawn) [Example 22-1] | 6.57 | 35
6 | Cc1cc(OC[C@H](O)CO)cc(C)c1-c1cccc(COc2ccc3c(c2)OC2(CC2)C3CC(=O)O)c1C (stereo partly drawn) [Example 22, sodium {6-[(4′-{[(2R)-2,3-dihydroxypropyl]oxy}-2,2′,6′-trimethylbiphenyl-3-yl)methoxy]-3H-spiro[1-benzofuran-2,1′-cyclopropan]-3-yl}acetate] | 6.60 | 34
7 | Cc1cc(OCCO)cc(C)c1-c1cccc(COc2ccc3c(c2)OC2(CC2)C3CC(=O)O)c1C (stereo not drawn) [Example 25-3a] | 6.25 | 
8 | Cc1cc(OC[C@@H](O)CO)cc(C)c1-c1cccc(COc2ccc3c(c2)OC2(CC2)C3CC(=O)O)c1C (single isomer, unassigned) [Example 25-5b] | 6.59 | 
9 | Cc1cc(OC[C@H](O)CO)cc(C)c1-c1cccc(COc2ccc3c(c2)-c2ccccc2C3CC(=O)O)c1C (stereo partly drawn) [Example 8, sodium {3-[(4′-{[(2R)-2,3-dihydroxypropyl]oxy}-2,2′,6′-trimethylbiphenyl-3-yl)methoxy]-9H-fluoren-9-yl}acetate] | 6.21 | 25
10 | Cc1cc(OCCO)cc(C)c1-c1cccc(COc2ccc3c(c2)OC2(CC2)C3CC(=O)O)c1C (stereo not drawn) [Example 20, sodium (6-{[4′-(2-hydroxyethoxy)-2,2′,6′-trimethylbiphenyl-3-yl]methoxy}-3H-spiro[1-benzofuran-2,1′-cyclopropan]-3-yl)acetate] | 6.31 | 40
11 | COCCOc1cc(C)c(-c2cccc(CNc3ccc4c(c3)CC3(CC3)C4CC(=O)O)c2C)c(C)c1 (stereo not drawn) [Example 8-3] | 6.21 | 21
12 | CCOCCOc1cc(C)c(-c2cccc(COc3ccc4c(c3)OC3(CC3)C4CC(=O)O)c2C)c(C)c1 (stereo not drawn) [Example 21-2] | 6.09 | 23
13 | Cc1cccc(C)c1-c1cccc(COc2ccc3c(c2)-c2ccccc2C3CC(=O)O)c1C (stereo not drawn) [Example 6, 0.5 calcium {3-[(2,2′,6′-trimethylbiphenyl-3-yl)methoxy]-9H-fluoren-9-yl}acetate] | 6.11 | 35
14 | Cc1cc(OC[C@@H](O)CO)cc(C)c1-c1cccc(COc2ccc3c(c2)OC2(CC2)C3CC(=O)O)c1C (single isomer, unassigned) [Example 25-5a] | 6.46 | 
15 | Cc1cc(OCC[C@H](O)CO)cc(C)c1-c1cccc(COc2ccc3c(c2)OC2(CC2)C3CC(=O)O)c1C (single isomer, unassigned) [Example 25-7b] | 6.48 | 
16 | Cc1cc(OCC[C@@H](O)CO)cc(C)c1-c1cccc(COc2ccc3c(c2)OC2(CC2)C3CC(=O)O)c1C (stereo partly drawn) [Example 22-2] | 6.37 | 34
17 | Cc1cc(OC[C@H](O)CO)cc(C)c1-c1cccc(COc2ccc3c(c2)CC2(CC2)C3CC(=O)O)c1C (stereo partly drawn) [Example 4, sodium {5′-[(4′-{[(2R)-2,3-dihydroxypropyl]oxy}-2,2′,6′-trimethylbiphenyl-3-yl)methoxy]-1′,3′-dihydrospiro[cyclopropan-1,2′-inden]-1′-yl}acetate] | 6.60 | 20
18 | Cc1cc(OCCC(C)(C)O)cc(C)c1-c1cccc(CNc2ccc3c(c2)CC2(CC2)C3CC(=O)O)c1C (stereo not drawn) [Example 2-2] | 6.10 | 34
19 | Cc1cc(OCCC(C)(C)O)cc(C)c1-c1cccc(COc2ccc3c(c2)OC2(CC2)C3CC(=O)O)c1C (stereo not drawn) [Example 21, sodium (6-{[4′-(3-hydroxy-3-methylbutoxy)-2,2′,6′-trimethylbiphenyl-3-yl]methoxy}-3H-spiro[1-benzofuran-2,1′-cyclopropan]-3-yl)acetate] | 6.09 | 43
20 | Cc1cc(OCCO)cc(C)c1-c1cccc(COc2ccc3c(c2)OC2(CC2)C3CC(=O)O)c1C (stereo not drawn) [Example 25-3b] | 6.72 | 
21 | Cc1cc(OCC[C@H](O)CO)cc(C)c1-c1cccc(COc2ccc3c(c2)OC2(CC2)C3CC(=O)O)c1C (stereo partly drawn) [Example 22-3] | 6.33 | 38
22 | Cc1cc(OCC[C@H](O)CO)cc(C)c1-c1cccc(COc2ccc3c(c2)OC2(CC2)C3CC(=O)O)c1C (single isomer, unassigned) [Example 25-7a] | 6.31 | 
23 | Cc1nc(OCCO)nc(C)c1-c1cccc(COc2ccc3c(c2)CC2(CC2)C3CC(=O)O)c1C (stereo not drawn) [Example 23, [5′-({3-[2-(2-hydroxyethoxy)-4,6-dimethylpyrimidin-5-yl]-2-methylbenzyl}oxy)-1′,3′-dihydrospiro[cyclopropan-1,2′-inden]-1′-yl]acetic acid] | 6.28 | 20
24 | Cc1nc(OCCC(C)(C)O)nc(C)c1-c1cccc(COc2ccc3c(c2)CC2(CC2)C3CC(=O)O)c1C (stereo not drawn) [Example 8-12] | 6.23 | 24
